Several values for one entry are separate records, joined by “and”; a condition that tells them apart may be missing. Equal entries are not always repeated.
Assay: mn = molality of the nth substance listed, in mol/kg
Details: 298.15 K, 101.33 kPa, Liquid

CCCC[N+](CCCC)(CCCC)CCCC.[Br-] [tetrabutylammonium bromide] + O
Details	mass density [kg/m3]
m1 = 0.0509	998.2
m1 = 0.1034	999.39
m1 = 0.2709	1003.18
m1 = 0.589	1010.09
m1 = 0.7318	1013.27

CC[N+](CC)(CC)CC.[Br-] [tetraethylammonium bromide] + O
Details	mass density
m1 = 0.102	1000.71 kg/m3
m1 = 0.4023	1010.95 kg/m3
m1 = 0.549	1015.83 kg/m3
m1 = 1.212	1035.35 kg/m3 and 1035.67 kg/m3

C[N+](C)(C)C.[Br-] [tetramethylammonium bromide] + O
Details	mass density
m1 = 0.2579	1006.85 kg/m3
m1 = 0.258	1006.83 kg/m3
m1 = 0.2581	1006.9 kg/m3
m1 = 0.532	1016.59 kg/m3
m1 = 0.5322	1016.42 kg/m3
m1 = 0.5325	1016.59 kg/m3
m1 = 0.8105	1025.86 kg/m3
m1 = 0.8239	1026.24 kg/m3
m1 = 1.134	1036.07 kg/m3 and 1035.72 kg/m3
m1 = 1.839	1046.9 kg/m3

Reference: the NIST ThermoML archive (doi:10.1016/j.jct.2003.09.008)
